In patent publication US20210221777A1, “NOVEL COMPOUNDS RELATED TO MY[…] METHODS OF TREATING CANCER” (priority 2020, published 2021):
Like-named read-outs stand apart in the source and are kept apart here.

How the values were obtained:
[1] = system: pancreatic (PANC-1) tumor cell lines; assay: Cytotoxicity vs. PANC-1 tumor cell line
[2] = system: hypoxia-induced factor (HIF-1) signaling in T47D breast tumor cells; conditions: cited from earlier work; for IC50: hypoxia-induced, read-out: IC50 against HIF-1 signaling
[3] = Shelf life / preservation studies (1H NMR)
Excerpt: Our final approach reinvestigating 1 involved exploring the relevance of the C(8)-OH stereocenter and labile C-14/C-19 diene system for their SAR significance related to the cytotoxicity of 1 against tumor cell lines.

[4] = system: colon (HCT-116) tumor cell line; conditions: literature value, may be inaccurate due to compound degradation, read-out: HCT 116 IC50 (Sashidhara et al., 2009); cited from earlier work
[5] = Sample storage degradation experiments a-e followed by LCMS; format: physicochemical; conditions: 24 hrs
Excerpt: Recent work in our laboratory using HPLC during the scale up isolation of mycothiazole (1) hinted that mycothiazole-4,19-diol (7)^6 may also be an artifact of isolation encountered during routine purification of degraded 1. To test this hypothesis, we subjected freshly purified 1 to a variety of sample storage experimental conditions (a-e) summarized in Table 2. Analytical (LCMS) data was used to determine purity outcomes of 1 in terms of its observed degradation which is summarized at the bottom of Table 2 and in FIG. 2. […] Furthermore, the diagnostic MS m/z ion peak (439, [M+H]^+)^6 characteristic of 7 was also observed in samples b-c and e, but not in a or d, as shown in FIG. 2. Selected examples included molecular ion peaks of 421 m/z and 437 m/z. We were unable to pursue full or even partial structure elucidation of these components or the observed 439 m/z ion peak, using NMR studies, due to insufficient material.

solid tumor cell lines = conditions: read-out: cytotoxicity IC50 against a wide variety of solid tumor cell lines; range over literature cell lines; cited from earlier work
[6] = system: pancreatic (PANC-1), liver (HepG2), and colon (HCT-116) tumor cell lines; assay: Cytotoxicity of fresh 1, summary over PANC-1, HepG2 and HCT-116; format: cell-based
[7] = system: human colon tumor (HCT-15) cell lines; conditions: Manta et al., read-out: GI50 against HCT-15; cited from earlier work
[8] = system: colon (HCT-116) tumor cell line; assay: Cytotoxicity vs. HCT 116 tumor cell line; format: cell-based; conditions: this work, ± SEM, N = 2
[9] = read-out: PANC-1 IC50, PANC-1, this work, ± SEM, N = 2
[10] = a) standard protocol: amber vial, Argon, dark desiccator under vacuum
[11] = b) MeOH-O2 (air stream), amber vial, room temp. 22° C.
[12] = c) MeOH-N2 (N2 stream), amber vial, room temp. 22° C.
[13] = d) refrigeration 4° C., amber vial, Argon
[14] = e) direct light (hv), clear vial, 24° C.

In the case of “8-O-acetyl-mycothiazole [8-O-acetyl-mycothiazole (2)]”, the IC50 [1, 9] is given as 1.3 nM, the IC50 [2] is given as ~1 nM and the “time stable in preservation studies using 1H NMR” value ([3]; stored by standard storage protocol (Table 2a), more stable than 1) is given as ≥ 6 months.

For `C=CC/C=C\Cc1csc(C(C)(C)C(=O)C/C=C\C(=C)CCNC(=O)OC)n1` [8-Oxo-mycothiazole (8), 8-oxo-mycothiazole], the “fold less potent than 1 (cytotoxicity)” value ([1]; PANC-1, relative to 1) was 10,000 times and the IC50 [1, 9] was 2000 nM.

In the case of `C=CC/C=C\Cc1csc(C(C)(C)[C@H](O)C/C=C\C(=C)CCNC(=O)OC)n1` [mycothiazole (1), mycothiazole], the IC50 [4] is given as 3.8 ± 0.24 nM, the “analytical LCMS data UV-PDA maximum absorbance units of 1” value [5, 10] is given as 500000 AU and the “purity outcomes of 1 involving its degradation” value (from here on “purity outcomes”) [5, 10] is given as “minimal degradation”. The “MS-TIC of visible impurity peaks” value [5, 11] was ~45% relative % relative abundance of m/z io, the “analytical LCMS data UV-PDA maximum absorbance units of 1” value [5, 11] was 500000 AU and the “purity outcomes” value [5, 11] was “partial degradation”. The “MS-TIC of visible impurity peaks” value [5, 12] was ~45% relative % relative abundance of m/z io, the “analytical LCMS data UV-PDA maximum absorbance units of 1” value [5, 12] was 500000 AU and the “purity outcomes” value [5, 12] was “partial degradation”. For the same compound, the “MS-TIC of visible impurity peaks” value [5, 13] was ~20% relative % relative abundance of m/z io, the “analytical LCMS data UV-PDA maximum absorbance units of 1” value [5, 13] was 500000 AU and the “purity outcomes” value [5, 13] was “minimal degradation”. The “MS-TIC of visible impurity peaks” value [5, 14] was ~60% relative % relative abundance of m/z io, the “analytical LCMS data UV-PDA maximum absorbance units of 1” value [5, 14] was 280000 AU and the “purity outcomes” value [5, 14] was “severe degradation”. The IC50 (solid tumor cell lines) was 0.36 to 13.8 nM, the IC50 ([1]; Homo sapiens, PANC-1, read-out: PANC-1 IC50) was 0.16 nM and the IC50 [2] was ~1 nM. The “increase in potency of fresh 1 versus earlier data” value ([6]; PANC-1, HepG2, HCT-116) was “tenfold increase”, the IC50 ([6]; range over PANC-1, HepG2, HCT-116, read-out: IC50 of fresh 1 across three tumor cell lines) was 0.16 to 0.36 nM and the shelf life ([3]; pure 1, storage protocols a or d of Table 2) was 3-6 weeks. For the same compound, the stability on storage ([3]; stored at 4° C.) was “unstable” and the GI50 [7] was 44000 nM.

For `C=CC/C=C\Cc1csc(C(C)(C)[C@H](O)C/C=C/C(O)(CO)CCNC(=O)OC)n1` (stereo partly drawn) [mycothiazole-4,19-diol (7), mycothiazole-4,19-diol, reference compound], the IC50 [8] is listed as > 1000 nM and the “times less potent than 1 or 2 at suppression of hypoxia-induced HIF-1 activation” value [2] is listed as “at least 1000 times”.
